Data as given in the NIST ThermoML archive (doi:10.1021/je300784x).
Numbers after ± are expanded uncertainties.

Settings: Liquid, Twin ebulliometer

## CCOc1ccccc1O [2-ethoxyphenol]
380.22 K
  vapor or sublimation pressure: 2.827 ± 0.015 kPa
383.28 K
  vapor or sublimation pressure: 3.25 ± 0.015 kPa
386.29 K
  vapor or sublimation pressure: 3.72 ± 0.015 kPa
391.94 K
  vapor or sublimation pressure: 4.757 ± 0.015 kPa
397.4 K
  vapor or sublimation pressure: 5.986 ± 0.015 kPa
402.92 K
  vapor or sublimation pressure: 7.506 ± 0.016 kPa
408.63 K
  vapor or sublimation pressure: 9.39 ± 0.016 kPa
414.5 K
  vapor or sublimation pressure: 11.73 ± 0.016 kPa
418.79 K
  vapor or sublimation pressure: 13.71 ± 0.016 kPa
423.31 K
  vapor or sublimation pressure: 16.11 ± 0.016 kPa
428.48 K
  vapor or sublimation pressure: 19.24 ± 0.017 kPa
436.26 K
  vapor or sublimation pressure: 24.89 ± 0.018 kPa
445.61 K
  vapor or sublimation pressure: 33.38 ± 0.019 kPa
457.01 K
  vapor or sublimation pressure: 46.82 ± 0.023 kPa
486.03 K
  vapor or sublimation pressure: 100.76 ± 0.025 kPa
